Source: patent US12295936B2, “Immunomodulating urea azalides” (Zoetis Services LLC, priority 2020, dated 2025)
Where two headings read alike, the source gives them in different places.

What was measured:
TNF-α = test: LPS-stimulated whole bovine blood assay, MSD cytokine detection; type: cell-based; details: Bos taurus, read-out: TNF-α (IC50 μM)
IL-1β = test: as above; type: cell-based; details: overstimulation of IL-1β, LPS-stimulated bovine whole blood
IL-6 = test: as above; type: cell-based; details: Bos taurus, read-out: IL-6 (IC50 μM)
Excerpt: In order to correlate RNA sequencing data to cytokine changes the whole blood assay was utilized. […] The enhancement result represents an overall stimulation of cytokine levels due to cellular stress or potential toxicity with increasing concentrations of the compound, representing a typical bell shape response curve for immunomodulatory activity.

[1] = tested on: BRD pathogens, M. haemolytica and P. multocida; test: MIC screening panel of BRD pathogens (antibacterial / non-antibacterial); details: read-out: antibacterial / non-antibacterial (MIC for the BRD pathogens)
[2] = LPS-stimulated bovine whole blood

Compound | IC50 (TNF-α; [2]) [µM] | IC50 (IL-6; [2]) [µM] | IL-1β OS of LPS (IL-1β) [µM] | MIC [1] [µg/mL] | IC50 (TNF-α) [µM] | IC50 (IL-6) [µM]
CC[C@H]1OC(=O)[C@H](C)[C@@H](O[C@H]2C[C@@](C)(OC)[C@](O)(CN=[N+]=[N-])[C@H](C)O2)[C@H](C)[C@@H](O[C@@H]2O[C@H](C)C[C@H](N(C)C(=O)N(C)c3ccccc3)[C@H]2O)[C@](C)(O)C[C@@H](C)CN[C@H](C)[C@@H](O)[C@]1(C)O [Example F-2, 1-((2S,3R,4S,6R)-2-(((2R,3S,4R,5R,8R,10R,11R,12S,13S,14R)-13-(((2R,4R,5S,6S)-5-(azidomethyl)-5-hydroxy-4-methoxy-4,6-dimethyltetrahydro-2H-pyran-2-yl)oxy)-2-ethyl-3,4,10-trihydroxy-3,5,8,10,12,14-hexamethyl-15-oxo-1-oxa-6-azacyclopentadecan-11-yl)oxy)-3-hydroxy-6-methyltetrahydro-2H-pyran-4-yl)-1,3-dimethyl-3-phenylurea] | 11 | 30 | 40 | > 64 | – | –
CC[C@H]1OC(=O)[C@H](C)[C@@H](O[C@H]2C[C@@](C)(OC)[C@](O)(CC#N)[C@H](C)O2)[C@H](C)[C@@H](O[C@@H]2O[C@H](C)C[C@H](N(C)C(=O)N(C)c3ccccc3)[C@H]2O)[C@](C)(O)C[C@@H](C)CN[C@H](C)[C@@H](O)[C@]1(C)O [Example G-2, 1-((2S,3R,4S,6R)-2-(((2R,3S,4R,5R,8R,10R,11R,12S,13S,14R)-13-(((2R,4R,5S,6S)-5-(cyanomethyl)-5-hydroxy-4-methoxy-4,6-dimethyltetrahydro-2H-pyran-2-yl)oxy)-2-ethyl-3,4,10-trihydroxy-3,5,8,10,12,14-hexamethyl-15-oxo-1-oxa-6-azacyclopentadecan-11-yl)oxy)-3-hydroxy-6-methyltetrahydro-2H-pyran-4-yl)-1,3-dimethyl-3-phenylurea] | 80 | 70 | 100 | > 64 | – | –
CCCNC[C@]1(O)[C@H](C)O[C@@H](O[C@H]2[C@H](C)[C@@H](O[C@@H]3O[C@H](C)C[C@H](N(CCC)C(=O)N(C)c4ccc(C(F)(F)F)cc4)[C@H]3O)[C@](C)(O)C[C@@H](C)CN[C@H](C)[C@@H](O)[C@](C)(O)[C@@H](CC)OC(=O)[C@@H]2C)C[C@@]1(C)OC [Example H-8, 1-((2S,3R,4S,6R)-2-(((2R,3S,4R,5R,8R,10R,11R,12S,13S,14R)-2-ethyl-3,4,10-trihydroxy-13-(((2R,4R,5S,6S)-5-hydroxy-4-methoxy-4,6-dimethyl-5-((propylamino)methyl)tetrahydro-2H-pyran-2-yl)oxy)-3,5,8,10,12,14-hexamethyl-15-oxo-1-oxa-6-azacyclopentadecan-11-yl)oxy)-3-hydroxy-6-methyltetrahydro-2H-pyran-4-yl)-3-methyl-1-propyl-3-(4-(trifluoromethyl)phenyl)urea] | 6 | 5 | 1 | > 64 | – | –
CC[C@H]1OC(=O)[C@H](C)[C@@H](O[C@H]2C[C@@](C)(OC)[C@](O)(Cn3ccnn3)[C@H](C)O2)[C@H](C)[C@@H](O[C@@H]2O[C@H](C)C[C@H](N(C)C(=O)N(C)c3ccccc3)[C@H]2O)[C@](C)(O)C[C@@H](C)CN[C@H](C)[C@@H](O)[C@]1(C)O [Example J-28, 1-((2S,3R,4S,6R)-2-(((2R,3S,4R,5R,8R,10R,11R,12S,13S,14R)-13-(((2R,4R,5S,6S)-5-((1H-1,2,3-triazol-1-yl)methyl)-5-hydroxy-4-methoxy-4,6-dimethyltetrahydro-2H-pyran-2-yl)oxy)-2-ethyl-3,4,10-trihydroxy-3,5,8,10,12,14-hexamethyl-15-oxo-1-oxa-6-azacyclopentadecan-11-yl)oxy)-3-hydroxy-6-methyltetrahydro-2H-pyran-4-yl)-1,3-dimethyl-3-phenylurea] | 57 | 152 | 100 | – | – | –
CC[C@H]1OC(=O)[C@H](C)[C@@H](O[C@H]2C[C@@](C)(OC)[C@](O)(Cn3cnnn3)[C@H](C)O2)[C@H](C)[C@@H](O[C@@H]2O[C@H](C)C[C@H](N(C)C(=O)N(C)c3ccccc3)[C@H]2O)[C@](C)(O)C[C@@H](C)CN[C@H](C)[C@@H](O)[C@]1(C)O [Example J-29, 1-((2S,3R,4S,6R)-2-(((2R,3S,4R,5R,8R,10R,11R,12S,13S,14R)-13-(((2R,4R,5S,6S)-5-((1H-tetrazol-1-yl)methyl)-5-hydroxy-4-methoxy-4,6-dimethyltetrahydro-2H-pyran-2-yl)oxy)-2-ethyl-3,4,10-trihydroxy-3,5,8,10,12,14-hexamethyl-15-oxo-1-oxa-6-azacyclopentadecan-11-yl)oxy)-3-hydroxy-6-methyltetrahydro-2H-pyran-4-yl)-1,3-dimethyl-3-phenylurea] | – | – | 40 | – | 19 | 56
CC[C@H]1OC(=O)[C@H](C)[C@@H](O[C@H]2C[C@@](C)(OC)[C@](O)(Cn3ncnn3)[C@H](C)O2)[C@H](C)[C@@H](O[C@@H]2O[C@H](C)C[C@H](N(C)C(=O)N(C)c3ccccc3)[C@H]2O)[C@](C)(O)C[C@@H](C)CN[C@H](C)[C@@H](O)[C@]1(C)O [Example J-30, 1-((2S,3R,4S,6R)-2-(((2R,3S,4R,5R,8R,10R,11R,12S,13S,14R)-13-(((2R,4R,5S,6S)-5-((2H-tetrazol-2-yl)methyl)-5-hydroxy-4-methoxy-4,6-dimethyltetrahydro-2H-pyran-2-yl)oxy)-2-ethyl-3,4,10-trihydroxy-3,5,8,10,12,14-hexamethyl-15-oxo-1-oxa-6-azacyclopentadecan-11-yl)oxy)-3-hydroxy-6-methyltetrahydro-2H-pyran-4-yl)-1,3-dimethyl-3-phenylurea] | – | – | 40 | – | 16 | 111

Further lines, with some results ahead:

IC50 (TNF-α; [2]) [µM] | IC50 (IL-6; [2]) [µM] | Compound | IL-1β OS of LPS (IL-1β) [µM] | MIC [1] [µg/mL] | IC50 (TNF-α) [µM] | IC50 (IL-6) [µM]
> 250 | 246 | CC[C@H]1OC(=O)[C@H](C)[C@@H](O)[C@H](C)[C@@H](O[C@@H]2O[C@H](C)C[C@H](N(C)C(=O)Nc3ccc(OC)cc3)[C@H]2O)[C@](C)(O)C[C@@H](C)CN[C@H](C)[C@@H](O)[C@]1(C)O [Example A-22, 1-((2S,3R,4S,6R)-2-(((2R,3S,4R,5R,8R,10R,11R,12S,13S,14R)-2-ethyl-3,4,10,13-tetrahydroxy-3,5,8,10,12,14-hexamethyl-15-oxo-1-oxa-6-azacyclopentadecan-11-yl)oxy)-3-hydroxy-6-methyltetrahydro-2H-pyran-4-yl)-3-(4-methoxyphenyl)-1-methylurea] | 100 | > 64 | – | –
2 | 8 | CC[C@H]1OC(=O)[C@H](C)[C@@H](O[C@H]2C[C@@](C)(OC)[C@@H](O)[C@H](C)O2)[C@H](C)[C@@H](O[C@@H]2O[C@H](C)C[C@H](N(C)C(=O)Nc3ccc(C(F)(F)F)cc3)[C@H]2O)[C@](C)(O)C[C@@H](C)CN(C)[C@H](C)[C@@H](O)[C@]1(C)O [Example B-8, 1-((2S,3R,4S,6R)-2-(((2R,3S,4R,5R,8R,10R,11R,12S,13S,14R)-2-ethyl-3,4,10-trihydroxy-13-(((2R,4R,5S,6S)-5-hydroxy-4-methoxy-4,6-dimethyltetrahydro-2H-pyran-2-yl)oxy)-3,5,6,8,10,12,14-heptamethyl-15-oxo-1-oxa-6-azacyclopentadecan-11-yl)oxy)-3-hydroxy-6-methyltetrahydro-2H-pyran-4-yl)-1-methyl-3-(4-(trifluoromethyl)phenyl)urea] | 6 | > 64 | – | –
107 | 116 | CC[C@H]1OC(=O)[C@H](C)[C@@H](O[C@H]2C[C@@](C)(OC)[C@@H](O)[C@H](C)O2)[C@H](C)[C@@H](O[C@@H]2O[C@H](C)C[C@H](N(C)C(=O)Nc3ccc(F)cc3)[C@H]2O)[C@](C)(O)C[C@@H](C)CN(C)[C@H](C)[C@@H](O)[C@]1(C)O [Example B-9, 1-((2S,3R,4S,6R)-2-(((2R,3S,4R,5R,8R,10R,11R,12S,13S,14R)-2-ethyl-3,4,10-trihydroxy-13-(((2R,4R,5S,6S)-5-hydroxy-4-methoxy-4,6-dimethyltetrahydro-2H-pyran-2-yl)oxy)-3,5,6,8,10,12,14-heptamethyl-15-oxo-1-oxa-6-azacyclopentadecan-11-yl)oxy)-3-hydroxy-6-methyltetrahydro-2H-pyran-4-yl)-3-(4-fluorophenyl)-1-methylurea] | 28 | > 64 | – | –
40 | 35 | CC[C@H]1OC(=O)[C@H](C)[C@@H](O[C@H]2C[C@@](C)(OC)[C@](O)(CCl)[C@H](C)O2)[C@H](C)[C@@H](O[C@@H]2O[C@H](C)C[C@H](N(C)C(=O)N(C)c3ccccc3)[C@H]2O)[C@](C)(O)C[C@@H](C)CN[C@H](C)[C@@H](O)[C@]1(C)O [Example E-2, 1-((2S,3R,4S,6R)-2-(((2R,3S,4R,5R,8R,10R,11R,12S,13S,14R)-13-(((2R,4R,5S,6S)-5-(chloromethyl)-5-hydroxy-4-methoxy-4,6-dimethyltetrahydro-2H-pyran-2-yl)oxy)-2-ethyl-3,4,10-trihydroxy-3,5,8,10,12,14-hexamethyl-15-oxo-1-oxa-6-azacyclopentadecan-11-yl)oxy)-3-hydroxy-6-methyltetrahydro-2H-pyran-4-yl)-1,3-dimethyl-3-phenylurea] | 40 | > 64 | – | –
